Values joined by “and” are separate entries in the source; they are usually repeats but may differ in a detail not shown here. Equal values may be shown once.
Key:
[1] = system: AT-3ova CD73+ tumour (mouse breast carcinoma cell line AT-3); experiment: Example 1: anti-tumor responses of SYN-115 in the AT-3ova CD73+ tumour cell mouse model (tumor area); assay type: in vivo, C57/BL6 mice
Procedure: The C57BL/6 mouse breast carcinoma cell line AT-3 was obtained from Dr. Trina Stewart (Griffith University, Nathan, QLD, Australia. Tumor cell lines were transduced to express chicken ovalbumin peptide and CD73 as previously described (1, 2, 3). Tumor cells are periodically verified to be Mycoplasma negative by the Victorian Infectious Diseases References Lab (Melbourne, VIC, Australia) by PCR analysis. Tumor cells were grown in DMEM supplemented with 10% FCS, GlutaMAX, and penicillin/streptomycin. 5×10^5 cells were resuspended in PBS and injected s.c. into C57/BL6 mice in a 100 μL volume. At day 14 tumors were measured and mice were randomized into distinct treatment groups to ensure that each group had tumors of similar size at the onset of treatment. Mice were treated i.p. at days 14, 18, 22, and 26 with either isotype control (2A3; 200 μg/mouse) or anti-PD-1 mAb (RMP1-14, 200 μg/mouse) and where indicated SYN-115 (Batch 71236AA002) at the indicated dose or vehicle control once-daily via oral gavage on days 14 to 29. To calculate a dose of SYN-115, mouse weight was estimated to be 20 g per mouse. Therefore, 100 mg/kg=2 mg per mouse in 200 μL, which is equivalent to 10 mg/ml. […] Tumor sizes were determined by width * length and mice were culled when tumors reached the ethical limit of 150 mm^2.

[2] = system: CT26 colon carcinoma tumor; experiment: Example 4: anti-tumor responses of SYN-115 in the CT26 tumor mouse model (tumor area, survival); assay type: in vivo, BALB/c mice; set-up: key: tumor area, width*length, in mm^2
Procedure: The BALB/c mouse colon carcinoma cell line CT26 was cultured in RPMI supplemented with 10% FCS, GlutaMAX, and penicillin/streptomycin. Tumor cells are periodically verified to be Mycoplasma negative by the Victorian Infectious Diseases References Lab (Melbourne, VIC, Australia) by PCR analysis. 1×10^5 cells were resuspended in PBS and injected s.c. into BALB/c mice in a 100 μL volume. At day 9, tumors were measured and mice were randomized into distinct treatment groups to ensure that each group had tumors of similar size at the onset of treatment. Mice were treated i.p. at days 9, 13 and 17 with either isotype control (2A3; 200 μg/mouse) or anti-PD-1 mAb (RMP1-14, 200 μg/mouse) and where indicated, SYN-115 (Batch 71236AA002) at the indicated dose or vehicle control once-daily via oral gavage on days 14 to 29. To calculate a dose of SYN-115 mouse weight was estimated to be 20 g per mouse. Therefore, 100 mg/kg=2 mg per mouse in […] which is equivalent to 10 mg/ml. To make up 40 mL, 400 milligrams of SYN-115 was weighed and added into a Falcon tube, then 1 mL of Tween 80 was added and mixed into a paste and then 39 mL of 1% Methyl Cellulose was added. The solution was vortexed and then left on a rotating mixer for at least 2 hours and maintained at 4° C. Tumor measurements were taken 2-3 times per week. Tumor sizes were determined by width * length and mice were culled when tumors reached the ethical limit of 150 mm^2.

[3] = system: B16F10 Cherry melanoma metastases; experiment: Example 10: number of lung tumor metastases in the B16F10 tumor mouse model; assay type: in vivo, C57/BL6 mice; conditions: 100 mg/kg once-daily oral gavage days 0 to 13, counted day 14, Batch 71236AA006
Procedure: The C57/BL6 mouse melanoma cell line B16F10 Cherry was cultured in DMEM supplemented with 10% FCS, GlutaMAX, and penicillin/streptomycin. Tumor cells are periodically verified to be Mycoplasma negative by the Victorian Infectious Diseases References Lab (Melbourne, VIC, Australia) by PCR analysis. 2×10^5 cells were resuspended in PBS and injected i.v. into C57/BL6 mice in a 200 μL volume. At day 14 lungs were excised and the number of metastases counted under the dissecting microscope. Mice were dosed with either SYN-115 (Batch 71236AA006) at 100 mg/kg or vehicle control once-daily via oral gavage on days 0 to 13. To calculate a dose of SYN-115 mouse weight was estimated to be 20 g per mouse. Therefore, 100 mg/kg=2 mg per mouse in 200 μL, which is equivalent to 10 mg/ml. To make up 40 mL, 400 milligrams of SYN-115 was weighed and added into a Falcon tube, then 1 mL of Tween 80 was added and mixed into a paste and then 39 mL of 1% Methyl Cellulose was added. Solution was vortexed and then left on a rotating mixer for at least 2 hours and maintained at 4° C.

## COc1ccc(N2CCOCC2)c2sc(NC(=O)N3CCC(C)(O)CC3)nc12 [SYN-115, 4-hydroxy-4-methyl-piperidine-1-carboxylic acid (4-methoxy-7-morpholin-4-yl-benzothiazol-2-yl)-amide]
[1]; 2A3+SYN-115 (100 mg/kg), Day 6
  Tumor size (width * length): 23.5 mm^2 and 27.03 mm^2 and 30.74 mm^2 and 17.5 mm^2 and 33.6 mm^2
[1]; Anti-PD-1 (200 ug)+SYN-115 (100 mg/kg), Day 0
  Tumor size (width * length): 13.76 mm^2 and 14 mm^2 and 17.2 mm^2 and 17.49 mm^2 and 26.22 mm^2 and 26.4 mm^2
[2]; 2A3 (200 μg/mouse)+SYN-115 (30 mg/kg), Day 0
  Raw Tumor Measurements: 12.71 and 14.85 and 16.32 and 18.92 and 20.16 and 22.36
[2]; 2A3 (200 μg/mouse)+SYN-115 (30 mg/kg), Day 4
  Raw Tumor Measurements: 37.62 and 42.12 and 40.7 and 53.2 and 38.4 and 52.56
[2]; 2A3 (200 μg/mouse)+SYN-115 (30 mg/kg), Day 13
  Raw Tumor Measurements: 146.41 and 150.7 and 93.93 and 186.83
[2]; 2A3 (200 μg/mouse)+SYN-115 (30 mg/kg), Day 15
  Raw Tumor Measurements: 188.94 and 100.8
[2]; 2A3 (200 μg/mouse)+SYN-115 (30 mg/kg), Day 19
  Raw Tumor Measurements: 186.12
[2]; 2A3 (200 μg/mouse)+SYN-115 (100 mg/kg), Day 0
  Raw Tumor Measurements: 12.76 and 14.8 and 17 and 18.9 and 20.5 and 21.12
[2]; 2A3 (200 μg/mouse)+SYN-115 (100 mg/kg), Day 4
  Raw Tumor Measurements: 44.73 and 41.31 and 42.7 and 41.76 and 49.64 and 25.85
[2]; 2A3 (200 μg/mouse)+SYN-115 (100 mg/kg), Day 6
  Raw Tumor Measurements: 53.4 and 59.78 and 73.04 and 58.32 and 71.76 and 42.92
[2]; 2A3 (200 μg/mouse)+SYN-115 (100 mg/kg), Day 8
  Raw Tumor Measurements: 66.75 and 90.2 and 89 and 87.4 and 94.08 and 51.84
[2]; 2A3 (200 μg/mouse)+SYN-115 (100 mg/kg), Day 13
  Raw Tumor Measurements: 187.53 and 175.56 and 213.12 and 203.68 and 164.56 and 110.4
[2]; 2A3 (200 μg/mouse)+SYN-115 (100 mg/kg), Day 15
  Raw Tumor Measurements: 151.42
[2]; Anti-PD-1 (200 ug)+SYN-115 (30 mg/kg), Day 22
  Raw Tumor Measurements: 108 and 136.64 and 120.64
[2]; Anti-PD-1 (200 ug)+SYN-115 (30 mg/kg), Day 25
  Raw Tumor Measurements: 160.95 and 151.2 and 159.6
[3]; AC#009 Males
  Number of Tumor Metastases (lung), individual mice: 0 (2×) and 9 and 5 and 16 and 13 and 1
[3]; AC#010 Females
  Number of Tumor Metastases (lung), individual mice: 166 and 38 and 141 and 32 and 137 and 264 and 23 and 226

— patent US20220088024A1, “METHODS FOR TREATING CANCER USING TOZADENANT” (Biotie Therapies, Inc., priority 2018, published 2022)
